# Experimental data from patent US20070049538A1, “METHODS FOR USING CUCURBITACIN COMPOUNDS” (SOUTH DAKOTA STATE UNIVERSITY, priority 2005, published 2007).
# Where two headings read alike, the source gives them in different places.
# What was measured:
# [1] = Chromatographic hydrophobicity index (CHI) by RP-HPLC in buffered acetonitrile; type: physicochemical; parameters: key: CHI = φ0 (isocratic hydrophobicity index), = A·tR + B; ACN % scale; details: for CHIACN (b): standard compounds, isochratic and gradient elution of standard mixture; for CHIACN1: buffered acetonitrile pH 7.0, Alltima C18 250 mm, Eq. (2) from isocratic φ0; for CHIACN2: buffered acetonitrile pH 7.0, Eq. (3) calibrated against published CHI
# Description: (§1) We used Dynamax liquid chromatograph (Varian Chromatography Systems) with PDA-2 photodiode array UV detector, controlled by the Dynamax PC Chromatography Data System (v. 1.9) software and Dynamax dual pump solvent delivery system, model SD-200. […] Cucurbitacins analytical separation was optimized on Alltima C18 (Alltech; 250 mm×4.6 mm, 5 μm) HPLC column, at gradient elution in acetonitrile (ACN, 30-70% ACN in 57 min), and in MeOH (60-75% MeOH in 50 min). Cucurbitacins stock concentration of 10^−2M in DMSO:ethanol (1:1) was standardized against pure cucurbitacin I (Indofine Chemical Company, Hillsborough, N.J.) by analytical HPLC means. Compounds CHI was measured in both ACN, by using Alltima C18 column, and in MeOH, by using Econosil C18 column (Alltech; 150 mm×4.6 mm, 5 μm). Analytical separations were conducted at a flow rate of 1 ml/min. The aqueous phase was buffered for the CHI measurement. For this purpose, solid ammonium acetate (Fisher Sci. Co., Fair Lawn, N.J.) was dissolved in deionized distilled water at 50 mM final concentration and its pH adjusted to 7.0.
# All standard compounds were purchased from Acros (Acros Organics, NJ). The chromatographic lipophilicity or hydrophobicity was determined applying Valkó's technique (Valkó et al., Anal. Chem. 69 (1997) 2022, the entire disclosure of which is herein incorporated by reference). A standard mixture of seven compounds was prepared in solution: theophylline (compound 19), benzimidazole (compound 20), acetophenone (compound 21), indole (compound 22), propiophenone (compound 23), butyrophenone (compound 24), and valerophenone (compound 25). […] The retention factor, log k=log((tR-t0)/t0), was calculated for each analyte from five good injections of […] sample. The dead time (t0) was measured by injecting NaNO3 together with the sample. Then, the log k values were plotted against isocratic ACN concentrations to establish the linear regression equations for each analyte. From each straight line the isocratic hydrophobicity index was computed, φ0=(intercept/slope). Further, the calibration mixture was injected at fast gradient elution, 0-22 min 0-100% ACN, and three additional minutes at 100% ACN. The φ0 values for the test compounds were plotted against gradient retention time and the linear equation determined from the following equation: φ0=CHI=AtR+B (1)
# The gradient elution conditions were similar to the one from the first approach.
# (§2) Cucurbitacins lipophilicity was measured by RP-HPLC. […] Due to its high viscosity, aqueous MeOH required a shorter column than the one applied for ACN. First, the C18 columns were calibrated against a standard mixture, and the relationships established between the fast gradient tR and φ0 or published CHI (see Eqs. (2)-(4) from Table 2). Second, cucurbitacins were injected at fast gradient elution under similar conditions, and their CHI calculated (Table 4) from Eqs. (2)-(4). Eqs.
# [2] = Chromatographic hydrophobicity index (CHI) by RP-HPLC in buffered methanol; type: physicochemical; details: for CHIMeOH (b): standard compounds, isochratic and gradient elution of standard mixture; for CHIMeOH: buffered methanol pH 7.0, Econosil C18 150 mm, Eq. (4)
# Description: as §1
# A standard mixture of 10 compounds including 19-21, 23-27, aniline (compound 28) and bromobenzene (compound 29), dissolved in MeOH, was injected at five isochratic elution, at 40, 45, 50, 55, and 60% MeOH. Then the mixture was injected at fast gradient elution to establish the correlation from Eq. (1). The fast linear gradient elution was optimized for 30-100% MeOH in aqueous buffer with 10 min runtime.
# as §2
# [3] = standard compounds; gradient elution and correlation with published data; cited from earlier work
# [4] = test system: HSC-T6 cells; test: Serum-driven HSC-T6 proliferation, experiment 1 (4 h challenge, two days drug-free growth); type: cell-based, rat; details: for EC50: HSC-T6, 4 h challenge, then two days drug-free media
# Description: The proliferation effect of serum on HSC-T6 cells was optimized and cucurbitacin antiproliferative activity was measured. Serum contains a large number of growth factors, hormones and other nutrients, which help cells to grow and multiply. Several trials were conducted. In experiment 1, cells were challenged with cucurbitacin analogs for 4 h and then cells were grown in drug-free media for two additional days.
# HSC-T6 cells were photographed under phase-contrast microscope to record possible changes in cell morphology during experiment 1. […] We are monitoring specifically the effect of compound on the cells, cell recovery after 4 h challenge, and relative cell proliferation. […] Live cells are quantified at the end of the assay (row 4) with MTT dye.
# (§3) We established several experimental conditions such as 4 hours of incubation time with cucurbitacin, and 2 day cell incubation with fresh media after challenging with cucurbitacin (Exp. 1). Other experiments involved addition of cucurbitacin for 24 hours over starved cells (Exp. 2) vs. proliferating cells (Exp. 3), and one day incubation of cells with fresh media after challenge. […] Because of that, the challenge time was increased to 24 hours (Exp. 2 and 3).
# We modified this approach. Our assay included a second control (ZC) supplemented with no serum intended to measure cucurbitacin anti-proliferation effect relative to the number of cells generated during challenge instead of the total number of cells present in each well.
# [5] = test system: HSC-T6 cells; test: Serum-driven HSC-T6 proliferation, experiment 2 (24 h, starved/quiescent cells); type: cell-based, rat; details: HSC-T6, 24 h, read-out: Experiment 2 EC50
# Description: (§4) To overcome this problem, the amount of incubation time was increased to 24 h, and cucurbitacin activity measured on starved (Exp. 2) or proliferative (Exp. 3) cells (Table 8). Cells turned quiescent when serum was not supplemented for one day (Exp. 2). Activity of a few compounds was monitored on quiescent cells, and their activity compared to the ones measured on proliferating cells (Exp. 3).
# as §3, with “challenge. The 4 hour incubation period with cucurbitacin triggered anti-proliferation effect. This effect, however, was hindered by a second cycle of cell proliferation during the two-day cell growth period (see silybin, E and I glucosides, and for I-nPr).” for “challenge.”
# (§5) In experiment 3, only 40% of the cells divided. The ratio of EC50 values for exp. 2 and exp. 3 varied between 3.6 and 12.7. This may indicate differential cytotoxicity of silybin and cucurbitacin analogs over quiescent and active stellate cells. In other words, compounds show higher anti-proliferative activity on active cells than on quiescent cells.
# [6] = test system: HSC-T6 cells; test: Serum-driven HSC-T6 proliferation, experiment 3 (24 h, proliferating cells); type: cell-based, rat; details: HSC-T6, 24 h, read-out: Experiment 3 EC50 (A)
# Description: as §4
# as §3, with “challenge. The 4 hour incubation period with cucurbitacin triggered anti-proliferation effect. This effect, however, was hindered by a second cycle of cell proliferation during the two-day cell growth period (see silybin, E and I glucosides, and for I-nPr).” for “challenge.”
# as §5
# [7] = test system: HSC-T6 cells; test: Cytotoxicity on HSC-T6 cells (experiment 3); type: cell-based, rat; details: for IC50: read-out: Experiment 3 IC50 (T)
# Excerpt: Cytotoxicity of all cucurbitacin analogs was additionally measured in experiment 3 (Table 8).
# [8] = test system: HepG2 cells; test: Cucurbitacins cytotoxicity on HepG2 cells (MTT viability assay); type: cell-based, human
# Description: HepG2 (human hepatocellular carcinoma, ATCC) cells were grown in EMEM (Gibco, Grand Island, N.Y.) supplemented with 10% fetal bovine serum (FBS), and 1% penicillin/fungizone mixture (Gibco). Thabrew's optimized procedure (Thabrew et al., J. Pharm. Pharmcol. 49 (1994) 1442, the entire disclosure of which is herein incorporated by reference) was followed. Cells were batch cultured for 10 days, then seeded at concentration of 30,000 cells/well in fresh media in 96-well microtiter plastic plates at 37° C. for a day. Then cells were exposed to different concentrations of cucurbitacins at final volume of 100 μl/well. Five-fold serial dilution of compounds was carried out in the plate for five consecutive wells. After 24 h of incubation with chemicals, live cells were visualized using the MTT viability assay (Promega, Madison, Wis.). The absorbance was measured at 570 nm. Negative (without cells) and positive (without test chemicals) controls were also incubated with each plate. […] At least three reproducible experiments were performed per compound with three replicate wells per concentration.
# Cells were challenged with cu-curbitacins at various concentrations for a day and then live cells quantified with MTT dye. This period of time measures exclusively compounds cytotoxicity, while longer incubation time may lead to interference from metabolites.
# [9] = test system: HepG2 cells; test: cells
# Excerpt: Experimental conditions were standardized on silybin. […]
# The ratio of IC50-to-EC50 (hereafter T/A) is also indicated in this table, which gives the margin between toxic and cytoprotective concentrations.
# [10] = DPPH* Stable Free Radical Scavenging Assay
# Description: Cucurbitacin antioxidant activity was studied first by the DPPH* Stable Free Radical Scavenging Assay (Cotelle et al., Free radical Biology & Medicine 20(1): 35-43, 1996). Experimental conditions were optimized on the standard compound ascorbic acid. Data indicated 30% activity at 50 μM concentration, and 100% activity at 100 μM for ascorbic acid. While the original assay required 10 minutes incubation time for the reaction to occur, this time was increased up to 30 minutes in case cucurbitacin were reacting slower than other reagents.
# [11] = test system: lipid peroxidation of microsomal suspension; test: Microsomal Lipid Peroxidation Assay; type: biochemical; details: at 0.1 mM, both chemical and enzymatic assays
# Description: Cucurbitacin anti-lipid peroxidation was studied by the Microsomal Lipid Peroxidation Assay (Engineer et al., Biochemical Pharmacology 38(8): 1279-1285, 1989). Lipid peroxidation of microsomal suspension was induced both enzymatically and chemically and validated on the standard compound quercetin. […] Activity of 3 cucurbitacin analogs, B, E, and E-Me-ether was monitored at 0.1 mM indicating no inhibition in either the chemical or enzymatic assay.
# [12] = read-out: EC50 cytoprotection, Table 7, HepG2 against CCl4 toxicity, estimated
structure (smiles),measurement,setting,value
"CC(=O)c1ccccc1 [Acetophenone (21), acetophenone, reference compound]",CHIACN (b),[1],61.93 ± 0.05
same,CHIMeOH (b),[2],52.47 ± 0.05
same,CHIACN (c),[3],64.90
"c1ccc2[nH]cnc2c1 [Benzimidazole (20), benzimidazole, reference compound]",CHIACN (b),[1],43.18 ± 0.12
same,CHIMeOH (b),[2],41.07 ± 0.04
same,CHIACN (c),[3],30.71
"CCCC(=O)c1ccccc1 [Butyrophenone (24), butyrophenone, reference compound]",CHIACN (b),[1],79.32 ± 0.14
same,CHIMeOH (b),[2],66.79 ± 0.05
same,CHIACN (c),[3],88.49
CCOC1=CC2C(=CCC3C2(C)C(=O)CC2(C)C(C(C)(O)C(=O)C=CC(C)(C)O)C(O)CC32C)C(C)(C)C1=O (centres unmarked) [I-Et],CHIACN1,[1],69.99
same,CHIACN2,[1],73.94
same,CHIMeOH,[2],69.61
same,EC50,[4],7.95 µM
same,EC50,[5]; starved (quiescent) cells,1.4 µM
same,EC50,[6]; proliferating cells,0.34 µM
same,IC50,[7],3.5 µM
COC1=CC2C(=CCC3C2(C)C(=O)CC2(C)C(C(C)(O)C(=O)C=CC(C)(C)O)C(O)CC32C)C(C)(C)C1=O (centres unmarked) [I-Me],IC50,"[8]; Table 4, 24 h incubation, MTT",15 µM
same,IC50,[8]; Table 5,15 ± 5.6 µM
same,IC50,[8]; Table 7,15 µM
same,CHIACN1,[1],64.84
same,CHIACN2,[1],65.95
same,CHIMeOH,[2],66.58
same,EC50,[9]; [12],5.3 µM
same,EC50,[4],3.4 µM
same,EC50,[5]; starved (quiescent) cells,1.4 µM
same,EC50,[6]; proliferating cells,0.11 µM
same,IC50,[7],6.4 µM
COC1=CC2C(=CCC3C2(C)C(=O)CC2(C)C(C(C)(O)C(=O)CCC(C)(C)O)C(O)CC32C)C(C)(C)C1=O [L-Me],CHIACN1,[1],64.84
same,CHIACN2,[1],65.95
same,CHIMeOH,[2],66.58
same,EC50,[9]; [12],5 µM
same,EC50,[4],10.8 µM
same,EC50,[5]; starved (quiescent) cells,1 µM
same,EC50,[6]; proliferating cells,0.18 µM
same,IC50,[7],6.7 µM
"CCC(=O)c1ccccc1 [Propiophenone (23), propiophenone, reference compound]",CHIACN (b),[1],71.72 + 0.15
same,CHIMeOH (b),[2],60.41 + 0.04
same,CHIACN (c),[3],78.41
"COc1cc(C2Oc3cc([C@H]4Oc5cc(O)cc(O)c5C(=O)[C@@H]4O)ccc3OC2CO)ccc1O (some centres unmarked) [Silybin, reference compound]",cell growth with compound alone,"[9]; HepG2, 14 to 200 μM, absence of CCl4",up to 125%
same,concentration giving complete protection from CCl4,"[9]; HepG2, CCl4 4.5×10^−3 M",higher than 100 μM
same,EC50,"[9]; Homo sapiens, HepG2, read-out: EC50 cytoprotection",45 µM
same,cytoprotection attained,[9]; text b199,100%
same,Experiment 1 anti-proliferation activity reached,[4]; EC50 could not be estimated,< 50%
same,Experiment 1 anti-proliferation activity,[4]; measured at 100 μM,˜20%^a^
same,EC50,[5]; Rattus norvegicus,68 µM
same,EC50,[6]; Rattus norvegicus,18.8 µM
same,Experiment 3 IC50 (T),[7],non toxic
"Cn1c(=O)c2[nH]cnc2n(C)c1=O [Theophylline (19), theophylline, reference compound]",CHIACN (b),[1],32.63 ± 0.07
same,CHIMeOH (b),[2],25.76 ± 0.05
same,CHIACN (c),[3],15.76
"CCCCC(=O)c1ccccc1 [Valerophenone (25), valerophenone, reference compound]",CHIACN (b),[1],86.66 ± 0.08
same,CHIMeOH (b),[2],73.05 + 0.12
same,CHIACN (c),[3],97.67
O=C1O[C@H]([C@@H](O)CO)C(O)=C1O [ascorbic acid],DPPH activity,[10]; at 50 μM,30%
same,DPPH activity,[10]; at 100 μM,100%
"O=c1c(O)c(-c2ccc(O)c(O)c2)oc2cc(O)cc(O)c12 [quercetin, reference compound]",inhibition of lipid peroxidation,[11],100%
